The text below walks through data of patent US20250197382A1, “KIF18A INHIBITOR” (WIGEN BIOMEDICINE TECHNOLOGY (SHANGHAI) CO., LTD., priority 2022, published 2025).

In assay [1] the target is Recombinant human KIF18A (1-467His-tagged) protein (Homo sapiens (Human), UniProt Q8NI77). Put plainly: KIF18A enzyme assay (microtubule-stimulated ATPase activity, ADP-Glo). It is filed as biochemical. As to conditions: 30 nM KIF18A, ATP 75 μM, read-out: inhibitory activity against KIF18A IC50. The procedure, abridged:
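Baculovirus-expressed human KIF18A (1-467, His-tagged; 30 nM) preincubated 15 min at room temperature with compound (22-point 2-fold series) in pH 7.5 Tris buffer containing 30 μg/mL pig microtubules and 1 μM paclitaxel.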
In general terms: ADP-Glo first removes unused ATP, then detects ADP through luciferase.

Another assay deals with HT-29 cells. Put plainly: In vitro anti-proliferative activity against HT-29 cells (intracellular ATP content, 72 h). Type of assay: cell-based. As to conditions: Homo sapiens, 72 h after dosing. Here is the method: Biological Example 2. In Vitro Anti-Proliferative Activity of Compounds of the Present Invention Against HT-29 Cells
HT-29 cells were seeded on a 384-well plate at 3000 cells/well. After overnight adherence culture, DMSO or the compounds serially diluted in a 1:5 ratio from 5 μM were added. The viability was assessed 72 h after dosing by measuring the intracellular ATP content. The inhibition percentages of viable cells by the compounds were calculated by comparing with the DMSO group, and the […] values were also calculated.

Another assay relates to HCT116 cells. The assay can be described thus: In vitro anti-proliferative activity against HCT116 cells (intracellular ATP content, 72 h). It is filed as cell-based. As to conditions: Homo sapiens, HCT-116, 72 h after dosing. Here is the method:
Biological Example 3. In Vitro Anti-Proliferative Activity of Compounds of the Present Invention Against HCT116 Cells
HCT116 cells were seeded on a 384-well plate at 3000 cells/well. After overnight adherence culture, DMSO or the compounds serially diluted in a 1:5 ratio from 5 μM were added. The viability was assessed 72 h after dosing by measuring the intracellular ATP content. The inhibition percentages of viable cells by the compounds were calculated by comparing with the DMSO group, and the IC50 values were also calculated.

For orientation: IC50 means the concentration that gives 50% inhibition.

Recombinant human KIF18A (1-467His-tagged) protein, sequence (Q8NI77 1-467): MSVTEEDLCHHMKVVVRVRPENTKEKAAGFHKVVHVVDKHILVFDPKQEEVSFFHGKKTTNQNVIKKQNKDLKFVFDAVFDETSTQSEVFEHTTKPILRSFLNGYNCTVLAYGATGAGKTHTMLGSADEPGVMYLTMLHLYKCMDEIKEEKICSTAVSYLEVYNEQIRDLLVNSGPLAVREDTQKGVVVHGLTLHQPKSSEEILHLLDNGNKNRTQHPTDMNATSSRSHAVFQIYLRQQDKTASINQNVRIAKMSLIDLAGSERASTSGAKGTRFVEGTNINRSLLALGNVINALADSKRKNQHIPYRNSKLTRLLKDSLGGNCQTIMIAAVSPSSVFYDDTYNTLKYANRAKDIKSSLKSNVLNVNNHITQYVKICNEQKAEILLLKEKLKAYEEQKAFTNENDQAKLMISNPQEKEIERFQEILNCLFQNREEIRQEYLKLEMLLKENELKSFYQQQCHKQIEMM
Recombinant human KIF18A (1-467His-tagged) protein, sequence (P02550 whole entry partner): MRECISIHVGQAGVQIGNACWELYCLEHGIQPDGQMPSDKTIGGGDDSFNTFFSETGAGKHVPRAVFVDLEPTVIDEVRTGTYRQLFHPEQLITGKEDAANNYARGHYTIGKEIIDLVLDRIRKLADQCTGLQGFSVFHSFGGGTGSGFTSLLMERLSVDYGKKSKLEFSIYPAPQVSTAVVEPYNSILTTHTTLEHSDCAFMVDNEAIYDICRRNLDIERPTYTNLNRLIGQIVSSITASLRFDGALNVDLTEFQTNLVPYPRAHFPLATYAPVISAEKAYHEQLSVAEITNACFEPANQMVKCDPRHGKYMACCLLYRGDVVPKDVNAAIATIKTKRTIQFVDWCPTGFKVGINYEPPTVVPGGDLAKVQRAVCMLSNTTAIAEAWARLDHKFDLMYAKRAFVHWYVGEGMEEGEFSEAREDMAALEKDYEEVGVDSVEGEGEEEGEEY
Recombinant human KIF18A (1-467His-tagged) protein, sequence (P02554 whole entry partner): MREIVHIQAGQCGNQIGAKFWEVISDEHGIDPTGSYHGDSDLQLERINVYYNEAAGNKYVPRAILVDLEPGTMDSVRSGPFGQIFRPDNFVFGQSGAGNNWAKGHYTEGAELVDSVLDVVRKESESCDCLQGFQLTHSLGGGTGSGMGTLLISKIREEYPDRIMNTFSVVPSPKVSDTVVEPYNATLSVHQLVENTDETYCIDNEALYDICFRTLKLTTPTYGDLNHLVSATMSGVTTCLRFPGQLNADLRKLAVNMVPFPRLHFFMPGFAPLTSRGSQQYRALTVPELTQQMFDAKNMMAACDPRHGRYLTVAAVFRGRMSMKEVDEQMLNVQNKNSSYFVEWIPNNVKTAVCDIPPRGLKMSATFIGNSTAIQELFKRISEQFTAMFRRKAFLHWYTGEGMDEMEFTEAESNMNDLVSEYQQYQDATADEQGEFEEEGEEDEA

`O=C(Nc1cc(N2CCC(F)(F)CC2)c2occc2c1)c1ccc(NS(=O)(=O)CCO)cc1N1CCC2(CC1)CC2` [Compound 129]: the half-maximal inhibitory concentration (IC50) is no more than 100 nM in assay [1], 40 nM in the assay on HT-29 cells and greater than 10000 nM in the assay on HCT116 cells.
Take `O=C(Nc1ccc(S(=O)(=O)NCCO)cc1N1CCC2(CC1)CC2)c1cc2c(c(N3CCC(F)(F)CC3)n1)OCC2` [Compound 113]: the results for the IC50 (in assay [1]; with HT-29 cells; in the assay on HCT116 cells) were no more than 100 nM, 81 nM and greater than 10000 nM, respectively.
